# Results taken from US20250352520A1, “USE OF DEXPRAMIPEXOLE FOR THE TREATMENT OF EOSINOPHILIC COPD” (Areteia Therapeutics, Inc., priority 2024, published 2025).
# Read-outs that look alike come from different tables or passages of the source.
# How the values were obtained:
# [1] = across the dose groups at various time-points
# blood eosinophils = tested on: blood eosinophils
# Procedure: This was a Phase II, open-label, multicenter study in approximately 30 participants aged≥40 to ≤80 years of age with a diagnosis of COPD and a blood eosinophil count of ≥0.30×10^9/L at screening. Some patients with blood eosinophil counts of 0.25-0.299×10^9/L at screening also were included. Participants were treated with 150 mg dexpramipexole BID. […] Informed consent was obtained from participants before the initiation of any study-specific procedures. This study was conducted at approximately 30 sites in the US.
# There were three phases to the study: • Screening Phase (Screening Visit through Baseline) Participants underwent screening to assess whether they satisfy the eligibility criteria. […] After the collection of all Baseline assessments, participants began investigational treatment (dexpramipexole 150 mg), BID for 16 weeks. The Week 16 Visit was the Primary Outcome Visit for the study. • Follow-up Phase (Conclusion of Week 16 assessments through Week 20) During this phase, participants had one final phone visit to collect final safety assessments following cessation of investigational product.
# The primary endpoint of this study was geometric mean change in the blood AEC from Baseline to Week 16.
# Blood eosinophil counts were obtained at every onsite study visit. Samples were collected between 6 AM and 12 noon to minimize diurnal variation.
# [2] = Subject 10001-001-0001 (<50% AEC reduction at Week 16), Week 4
# [3] = Subject 10001-001-0001 (<50% AEC reduction at Week 16), Week 8
# [4] = Subject 10001-001-0001 (<50% AEC reduction at Week 16), Week 12
# [5] = Subject 10001-001-0001 (<50% AEC reduction at Week 16), Week 16
# [6] = Subject 10001-001-0002 (>=50% AEC reduction at Week 16), Week 4
# [7] = Subject 10001-008-0002 (<50% AEC reduction at Week 16), Week 4
# [8] = Subject 10001-008-0002 (<50% AEC reduction at Week 16), Week 8
# [9] = Subject 10001-008-0002 (<50% AEC reduction at Week 16), Week 12
# [10] = Subject 10001-008-0002 (<50% AEC reduction at Week 16), Week 16
# [11] = Subject 10001-010-0005 (<50% AEC reduction at Week 16), Week 4
# [12] = Subject 10001-010-0005 (<50% AEC reduction at Week 16), Week 8
# [13] = Subject 10001-010-0005 (<50% AEC reduction at Week 16), Week 12
# [14] = Subject 10001-010-0005 (<50% AEC reduction at Week 16), Week 16
# [15] = Subject 10001-022-0001 (>=50% AEC reduction at Week 16), Week 4
# [16] = Subject 10001-022-0001 (>=50% AEC reduction at Week 16), Week 8
# [17] = Subject 10001-022-0001 (>=50% AEC reduction at Week 16), Week 12
# [18] = Subject 10001-022-0001 (>=50% AEC reduction at Week 16), Week 16
# [19] = Subject 10001-022-0006 (<50% AEC reduction at Week 16), Week 4
# [20] = Subject 10001-022-0006 (<50% AEC reduction at Week 16), Week 12
# [21] = Subject 10001-022-0006 (<50% AEC reduction at Week 16), Week 16
# [22] = Subject 10001-024-0002 (>=50% AEC reduction at Week 16), Week 4
# [23] = Subject 10001-024-0002 (>=50% AEC reduction at Week 16), Week 8
# [24] = Subject 10001-024-0002 (>=50% AEC reduction at Week 16), Week 12
# [25] = Subject 10001-024-0002 (>=50% AEC reduction at Week 16), Week 16
compound,measurement,setting,value
"CCCN[C@@H]1CCc2nc(N)sc2C1 [Dexpramipexole, (6R)-2-amino-4,5,6,7-tetrahydro-6-(propylamino)benzothiazole]",placebo-corrected change from baseline in pre-BD FEV1,[1],clinically meaningful
same,AEC Ratio to Baseline,blood eosinophils; [2],0.70
same,AEC Result,blood eosinophils; [2],290 cells/uL
same,AEC Ratio to Baseline,blood eosinophils; [3],0.56
same,AEC Result,blood eosinophils; [3],235 cells/uL
same,AEC Ratio to Baseline,blood eosinophils; [4],0.54
same,AEC Result,blood eosinophils; [4],224 cells/uL
same,AEC Ratio to Baseline,blood eosinophils; [5],0.62
same,AEC Result,blood eosinophils; [5],260 cells/uL
same,AEC Ratio to Baseline,blood eosinophils; [6],0.80
same,AEC Result,blood eosinophils; [6],298 cells/uL
same,AEC Result,"blood eosinophils; Subject 10001-001-0002 (>=50% AEC reduction at Week 16), Week 8",0 cells/uL
same,AEC Ratio to Baseline,"blood eosinophils; Subject 10001-001-0002 (>=50% AEC reduction at Week 16), Week 8, zero value replaced with 5 cells",0.01(a)
same,AEC Result,"blood eosinophils; Subject 10001-001-0002 (>=50% AEC reduction at Week 16), Week 12",0 cells/uL
same,AEC Ratio to Baseline,"blood eosinophils; Subject 10001-001-0002 (>=50% AEC reduction at Week 16), Week 12, zero value replaced with 5 cells",0.01(a)
same,AEC Result,"blood eosinophils; Subject 10001-001-0002 (>=50% AEC reduction at Week 16), Week 16",0 cells/uL
same,AEC Ratio to Baseline,"blood eosinophils; Subject 10001-001-0002 (>=50% AEC reduction at Week 16), Week 16, zero value replaced with 5 cells",0.01(a)
same,AEC Ratio to Baseline,blood eosinophils; [7],0.70
same,AEC Result,blood eosinophils; [7],218 cells/uL
same,AEC Ratio to Baseline,blood eosinophils; [8],1.08
same,AEC Result,blood eosinophils; [8],336 cells/uL
same,AEC Ratio to Baseline,blood eosinophils; [9],1.90
same,AEC Result,blood eosinophils; [9],589 cells/uL
same,AEC Ratio to Baseline,blood eosinophils; [10],1.24
same,AEC Result,blood eosinophils; [10],384 cells/uL
same,AEC Ratio to Baseline,blood eosinophils; [11],0.94
same,AEC Result,blood eosinophils; [11],388 cells/uL
same,AEC Ratio to Baseline,blood eosinophils; [12],0.96
same,AEC Result,blood eosinophils; [12],396 cells/uL
same,AEC Ratio to Baseline,blood eosinophils; [13],0.56
same,AEC Result,blood eosinophils; [13],231 cells/uL
same,AEC Ratio to Baseline,blood eosinophils; [14],0.64
same,AEC Result,blood eosinophils; [14],266 cells/uL
same,AEC Ratio to Baseline,blood eosinophils; [15],1.51
same,AEC Result,blood eosinophils; [15],724 cells/uL
same,AEC Ratio to Baseline,blood eosinophils; [16],0.19
same,AEC Result,blood eosinophils; [16],90 cells/uL
same,AEC Ratio to Baseline,blood eosinophils; [17],0.01
same,AEC Result,blood eosinophils; [17],6 cells/uL
same,AEC Ratio to Baseline,blood eosinophils; [18],0.01
same,AEC Result,blood eosinophils; [18],6 cells/uL
same,AEC Ratio to Baseline,blood eosinophils; [19],1.23
same,AEC Result,blood eosinophils; [19],676 cells/uL
same,AEC Ratio to Baseline,blood eosinophils; [20],1.07
same,AEC Result,blood eosinophils; [20],589 cells/uL
same,AEC Ratio to Baseline,blood eosinophils; [21],0.62
same,AEC Result,blood eosinophils; [21],342 cells/uL
same,AEC Ratio to Baseline,blood eosinophils; [22],0.77
same,AEC Result,blood eosinophils; [22],192 cells/uL
same,AEC Ratio to Baseline,blood eosinophils; [23],0.77
same,AEC Result,blood eosinophils; [23],192 cells/uL
same,AEC Ratio to Baseline,blood eosinophils; [24],0.04
same,AEC Result,blood eosinophils; [24],9 cells/uL
same,AEC Ratio to Baseline,blood eosinophils; [25],0.39
same,AEC Result,blood eosinophils; [25],98 cells/uL
same,"AEC Observed, Geometric Mean ± GSE",blood eosinophils; Week 4,353.3 ± 1.22 cells/uL
same,"AEC Observed, Max",blood eosinophils; Week 4,724 cells/uL
same,"AEC Observed, Median",blood eosinophils; Week 4,298.0 cells/uL
same,"AEC Observed, Min",blood eosinophils; Week 4,192 cells/uL
same,"AEC Observed, Q1",blood eosinophils; Week 4,218 cells/uL
same,"AEC Observed, Q3",blood eosinophils; Week 4,676 cells/uL
same,"AEC Ratio to baseline, Geometric Mean ± GSE",blood eosinophils; Week 4,0.911 ± 1.1189
same,"AEC Ratio to baseline, Max",blood eosinophils; Week 4,1.51
same,"AEC Ratio to baseline, Median",blood eosinophils; Week 4,0.799
same,"AEC Ratio to baseline, Min",blood eosinophils; Week 4,0.70
same,"AEC Ratio to baseline, Q1",blood eosinophils; Week 4,0.70
same,"AEC Ratio to baseline, Q3",blood eosinophils; Week 4,1.23
same,"AEC Observed, Geometric Mean ± GSE",blood eosinophils; Week 8,118.0 ± 1.95 cells/uL
same,"AEC Observed, Max",blood eosinophils; Week 8,396 cells/uL
same,"AEC Observed, Median",blood eosinophils; Week 8,212.4 cells/uL
same,"AEC Observed, Min",blood eosinophils; Week 8,5 cells/uL
same,"AEC Observed, Q1",blood eosinophils; Week 8,90 cells/uL
same,"AEC Observed, Q3",blood eosinophils; Week 8,336 cells/uL
same,"AEC Ratio to baseline, Geometric Mean ± GSE",blood eosinophils; Week 8,0.323 ± 1.9860
same,"AEC Ratio to baseline, Max",blood eosinophils; Week 8,1.08
same,"AEC Ratio to baseline, Median",blood eosinophils; Week 8,0.658
same,"AEC Ratio to baseline, Min",blood eosinophils; Week 8,0.01
same,"AEC Ratio to baseline, Q1",blood eosinophils; Week 8,0.19
same,"AEC Ratio to baseline, Q3",blood eosinophils; Week 8,0.96
same,"AEC Observed, Geometric Mean ± GSE",blood eosinophils; Week 12,64.9 ± 2.30 cells/uL
same,"AEC Observed, Max",blood eosinophils; Week 12,589 cells/uL
same,"AEC Observed, Median",blood eosinophils; Week 12,224.0 cells/uL
same,"AEC Observed, Min",blood eosinophils; Week 12,5 cells/uL
same,"AEC Observed, Q1",blood eosinophils; Week 12,6 cells/uL
same,"AEC Observed, Q3",blood eosinophils; Week 12,589 cells/uL
same,"AEC Ratio to baseline, Geometric Mean ± GSE",blood eosinophils; Week 12,0.167 ± 2.2497
same,"AEC Ratio to baseline, Max",blood eosinophils; Week 12,1.90
same,"AEC Ratio to baseline, Median",blood eosinophils; Week 12,0.538
same,"AEC Ratio to baseline, Min",blood eosinophils; Week 12,0.01
same,"AEC Ratio to baseline, Q1",blood eosinophils; Week 12,0.01
same,"AEC Ratio to baseline, Q3",blood eosinophils; Week 12,1.07
same,"AEC Observed, Geometric Mean ± GSE",blood eosinophils; Week 16,82.8 ± 2.06 cells/uL
same,"AEC Observed, Max",blood eosinophils; Week 16,384 cells/uL
same,"AEC Observed, Median",blood eosinophils; Week 16,260.0 cells/uL
same,"AEC Observed, Min",blood eosinophils; Week 16,5 cells/uL
same,"AEC Observed, Q1",blood eosinophils; Week 16,6 cells/uL
same,"AEC Observed, Q3",blood eosinophils; Week 16,342 cells/uL
same,"AEC Ratio to baseline, Geometric Mean ± GSE",blood eosinophils; Week 16,0.213 ± 2.0849
same,"AEC Ratio to baseline, Max",blood eosinophils; Week 16,1.24
same,"AEC Ratio to baseline, Median",blood eosinophils; Week 16,0.620
same,"AEC Ratio to baseline, Min",blood eosinophils; Week 16,0.01
same,"AEC Ratio to baseline, Q1",blood eosinophils; Week 16,0.01
same,"AEC Ratio to baseline, Q3",blood eosinophils; Week 16,0.64
same,"AEC, average, percent of the baseline value",blood eosinophils; Week 16,21.3 % of the baseline value
same,subjects classified as AECR≥0.5 (reduction in AEC of ≥50% from baseline at week 16),blood eosinophils; Week 16,3 of the 7 subjects
